What was measured:
SXR [1] = target: T1, SXR (Homo sapiens, UniProt O75469); experiment: Microplate thermal shift assay (Thermofluor) of SXR with ligands, co-activator peptide SRC1-NR2 and co-repressor peptide NCoR-1; details: for ΔΔTm SRC1-NR2 / ΔΔTm NcoR1-NR2 / ΔTm ligand: SXR 6 μM, ligand 50 μM; for ΔΔTm SRC1-NR2: co-activator peptide SRC1-NR2 100 μM; for ΔΔTm SRC1-NR2 / ΔΔTm NcoR1-NR2: change from the receptor-ligand ΔTm; for ΔΔTm NcoR1-NR2: co-repressor peptide NCoR-1 100 μM; for ΔTm ligand: average of four experiments; for Probability Agonist (statistical probability of agonist state): computed from affinities derived from ΔΔTm with co-regulator peptides (FIG. 3); for ΔTm at 100 µM: read-out: ΔΔTm NcoR1-NR2
T1 sequence (O75469 1-434): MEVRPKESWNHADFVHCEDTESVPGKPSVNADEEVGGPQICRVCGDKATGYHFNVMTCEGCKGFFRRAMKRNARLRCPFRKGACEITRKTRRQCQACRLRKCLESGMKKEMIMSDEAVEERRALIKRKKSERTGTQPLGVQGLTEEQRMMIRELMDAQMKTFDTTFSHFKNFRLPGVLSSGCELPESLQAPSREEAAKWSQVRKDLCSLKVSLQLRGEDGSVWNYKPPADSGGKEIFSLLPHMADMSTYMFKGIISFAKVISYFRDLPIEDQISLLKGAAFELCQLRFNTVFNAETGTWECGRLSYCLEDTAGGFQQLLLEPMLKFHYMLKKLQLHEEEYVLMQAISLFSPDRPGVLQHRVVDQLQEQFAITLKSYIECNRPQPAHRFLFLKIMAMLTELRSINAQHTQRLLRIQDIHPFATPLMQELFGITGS
Procedure: A 2 μL ligand solution at 2 times the final concentration was dispensed with a micropipette into a 384 well black wall Greiner plate. Then, 2 μL of the protein dye solution was dispensed on top of the ligand solution in the 384 well plate. The plates were spun to ensure mixing of the protein-dye and ligand solutions followed by layering of 1 μL of silicone oil to prevent evaporation during heating of the samples. […] The values for the co-regulators represent a change in Tm stabilization from the receptor-ligand ΔTm values.

SXR [2] = target: T1, SXR; details: from Ekins & Erickson, Drug Metabolism and Disposition, 30, 96-99 and references therein; cited from earlier work
ER-β [3] = target: ER-β (Homo sapiens, UniProt Q92731); experiment: Microplate thermal shift assay (Thermofluor) of ER-β with ligands and co-regulators; format: binding; details: for Observed ΔTm Stabilization, SRC3-NR2: co-activator peptide SRC3-NR2 100 μM; for Observed ΔTm Stabilization, NR2: change in Tm stabilization from the receptor-ligand ΔTm; for Observed ΔTm Stabilization, NR2 / Observed ΔTm Stabilization, SRC-3: head shifted, see doubts; for Observed ΔTm Stabilization, SRC-3: average of four experiments
Procedure: (§1) A 2 μM ligand solution at 2 times the final concentration was dispensed with a micropipette into a 384 well black wall Greiner plate. Then, 2 μL of the protein dye solution was dispensed on top of the ligand solution in the 384 well plate. The plates were spun to ensure mixing of the protein-dye and ligand solutions followed by layering of 1 μL of silicone oil to prevent evaporation during heating of the samples.

ER-α [4] = target: T2, ER-α (Homo sapiens, UniProt P03372); experiment: Microplate thermal shift assay (Thermofluor) of ER-α with ligands and co-regulators; format: binding
T2 sequence (P03372 1-595): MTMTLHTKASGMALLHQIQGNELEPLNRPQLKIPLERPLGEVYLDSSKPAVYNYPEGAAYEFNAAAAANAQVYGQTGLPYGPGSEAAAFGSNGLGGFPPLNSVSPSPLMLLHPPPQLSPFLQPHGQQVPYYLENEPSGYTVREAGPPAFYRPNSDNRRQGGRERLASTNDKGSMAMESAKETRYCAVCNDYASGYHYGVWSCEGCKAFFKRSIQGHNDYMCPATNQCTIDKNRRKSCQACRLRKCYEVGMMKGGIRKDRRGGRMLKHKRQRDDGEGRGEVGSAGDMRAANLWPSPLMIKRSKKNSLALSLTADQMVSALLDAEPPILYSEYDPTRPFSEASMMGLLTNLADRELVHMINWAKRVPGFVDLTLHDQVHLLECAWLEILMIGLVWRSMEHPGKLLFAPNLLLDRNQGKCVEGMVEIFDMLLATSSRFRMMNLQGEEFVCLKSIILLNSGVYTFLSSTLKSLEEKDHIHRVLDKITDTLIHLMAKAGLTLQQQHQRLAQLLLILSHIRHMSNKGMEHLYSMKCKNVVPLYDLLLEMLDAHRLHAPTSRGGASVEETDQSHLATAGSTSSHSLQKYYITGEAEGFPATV
Procedure: as §1

ER-α [5] = target: T3, ER-α (UniProt P03372 297-554, limits assumed); experiment: Thermofluor thermal shift; ER-α 8 µM, no ligand; peptide 100 µM
T3 construct: also called estrogen receptor alpha
T3 sequence (looked up): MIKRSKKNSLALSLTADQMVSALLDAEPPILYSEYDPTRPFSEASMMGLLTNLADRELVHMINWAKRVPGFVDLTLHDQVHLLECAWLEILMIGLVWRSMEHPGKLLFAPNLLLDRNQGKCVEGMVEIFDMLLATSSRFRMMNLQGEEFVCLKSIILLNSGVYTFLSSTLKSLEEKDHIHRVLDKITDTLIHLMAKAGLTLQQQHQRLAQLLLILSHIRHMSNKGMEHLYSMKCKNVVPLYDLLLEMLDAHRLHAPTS
Procedure: as §1

ER-β [6] = target: T4, ER-β (UniProt Q92731 256-505, limits assumed); experiment: Thermofluor thermal shift; ER-β 8 µM, no ligand; peptide 100 µM
T4 construct: also called estrogen receptor beta
Procedure: as §1

ER-α [7] = target: T3, ER-α; experiment: Thermofluor thermal shift; ER-α 8 µM with estrone 20 µM; peptide 100 µM
Procedure: as §1

ER-β [8] = target: T4, ER-β; experiment: Thermofluor thermal shift; ER-β 8 µM with estrone 20 µM; peptide 100 µM
Procedure: as §1

ER-α [9] = target: T3, ER-α; experiment: Thermofluor thermal shift; ER-α 8 µM with estradiol 20 µM; peptide 100 µM
Procedure: as §1

ER-α [10] = target: T3, ER-α; experiment: Thermofluor thermal shift; ER-α 8 µM with tamoxifen 20 µM; peptide 100 µM
Procedure: as §1

ER-β [11] = target: T4, ER-β; experiment: Thermofluor thermal shift; ER-β 8 µM with estradiol 20 µM; peptide 100 µM
Procedure: as §1

ER-β [12] = target: T4, ER-β; experiment: Thermofluor thermal shift; ER-β 8 µM with tamoxifen 20 µM; peptide 100 µM
Procedure: as §1

ER-α [13] = target: T3, ER-α; experiment: Thermofluor thermal shift; ER-α 8 µM with ICI-182780 20 µM; peptide 100 µM
Procedure: as §1

ER-β [14] = target: T4, ER-β; experiment: Thermofluor thermal shift; ER-β 8 µM with ICI-182780 20 µM; peptide 100 µM
Procedure: as §1

ER-α [15] = target: T3, ER-α; experiment: Thermofluor thermal shift; ER-α 8 µM with 2-methoxy-E2 20 µM; peptide 100 µM
Procedure: as §1

ER-β [16] = target: T4, ER-β; experiment: Thermofluor thermal shift; ER-β 8 µM with 2-methoxy-E2 20 µM; peptide 100 µM
Procedure: as §1

ER-α [17] = target: T3, ER-α; experiment: Thermofluor thermal shift; ER-α 8 µM with 4-OH-tamoxifen 20 µM; peptide 100 µM
Procedure: as §1

ER-β [18] = target: T4, ER-β; experiment: Thermofluor thermal shift; ER-β 8 µM with 4-OH-tamoxifen 20 µM; peptide 100 µM
Procedure: as §1

ER-α [19] = target: T3, ER-α; experiment: Thermofluor thermal shift; ER-α 8 µM with 17-α-ethylene-E2 20 µM; peptide 100 µM
Procedure: as §1

ER-β [20] = target: T4, ER-β; experiment: Thermofluor thermal shift; ER-β 8 µM with 17-α-ethylene-E2 20 µM; peptide 100 µM
Procedure: as §1

[21] = ER-β 8 μM, ligand 20 μM, change from the receptor-ligand ΔTm

T4 sequence (Q92731 256-505 limits assumed): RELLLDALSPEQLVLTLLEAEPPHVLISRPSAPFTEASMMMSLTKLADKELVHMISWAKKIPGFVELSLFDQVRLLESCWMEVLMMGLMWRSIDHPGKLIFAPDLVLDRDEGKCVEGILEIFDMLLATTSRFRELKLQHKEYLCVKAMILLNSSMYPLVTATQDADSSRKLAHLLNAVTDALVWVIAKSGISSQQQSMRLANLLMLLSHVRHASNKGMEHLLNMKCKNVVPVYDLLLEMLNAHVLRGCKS
Sequence of ER-β (Homo sapiens, UniProt Q92731) (Q92731 whole entry, species assumed): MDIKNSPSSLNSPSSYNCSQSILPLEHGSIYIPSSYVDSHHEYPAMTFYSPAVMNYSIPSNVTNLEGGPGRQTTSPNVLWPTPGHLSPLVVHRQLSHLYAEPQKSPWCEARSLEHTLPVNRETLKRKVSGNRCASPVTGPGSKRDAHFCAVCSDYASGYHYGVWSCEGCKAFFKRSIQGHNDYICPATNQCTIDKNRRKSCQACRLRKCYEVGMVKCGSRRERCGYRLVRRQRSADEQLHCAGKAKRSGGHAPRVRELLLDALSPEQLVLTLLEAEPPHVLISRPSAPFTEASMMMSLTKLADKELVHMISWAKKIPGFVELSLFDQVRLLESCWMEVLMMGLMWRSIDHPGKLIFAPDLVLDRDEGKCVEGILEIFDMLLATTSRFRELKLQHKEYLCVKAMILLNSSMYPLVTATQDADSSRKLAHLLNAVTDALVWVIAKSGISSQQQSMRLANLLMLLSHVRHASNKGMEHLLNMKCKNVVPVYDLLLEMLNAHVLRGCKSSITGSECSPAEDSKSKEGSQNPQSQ

CC(=O)[C@H]1CC[C@H]2[C@@H]3CCC4=CC(=O)CC[C@]4(C)[C@H]3[C@H](O)C[C@]12C [11-α-hydroxy-progesterone]
ΔΔTm SRC1-NR2 (SXR [1]): 4.6 | ΔΔTm NcoR1-NR2 (SXR [1]): 1.0 | ΔTm ligand (SXR [1]): 6.3 °C | Probability Agonist (statistical probability of agonist state) (SXR [1]): 0.96

CC(=O)[C@@]1(O)CC[C@H]2[C@@H]3CCC4=CC(=O)CC[C@]4(C)[C@H]3CC[C@@]21C [17-α-hydroxyprogesterone]
Probability Agonist (statistical probability of agonist state) (SXR [1]): 0.47

C[C@]12CC[C@@H](O)C[C@@H]1CC[C@@H]1[C@@H]2CC[C@]2(C)C(=O)CC[C@@H]12 [Androsterone]
ΔΔTm SRC1-NR2 (SXR [1]): 3.5 | ΔTm ligand (SXR [1]): 3.3 °C | Probability Agonist (statistical probability of agonist state) (SXR [1]): 0.45 | ΔTm at 100 µM (SXR [1]): 3.8 °C

CCOC(=O)C(C)(C)Oc1ccc(Cl)cc1 [Clofibrate]
Kd (SXR [1]): 23 µM | ΔΔTm SRC1-NR2 (SXR [1]): 3.3 | ΔTm ligand (SXR [1]): 1.3 °C | Probability Agonist (statistical probability of agonist state) (SXR [1]): 0.49 | ΔTm at 100 µM (SXR [1]): 3.4 °C

C[C@]12C[C@H](O)[C@H]3[C@@H](CCC4=CC(=O)CC[C@@]43C)[C@@H]1CC[C@@H]2C(=O)CO [Corticosterone]
Kd (SXR [1]): 1.32 µM | ΔΔTm SRC1-NR2 (SXR [1]): 2.7 | ΔTm ligand (SXR [1]): 5 °C | Probability Agonist (statistical probability of agonist state) (SXR [1]): 0.93 | ΔTm at 100 µM (SXR [1]): 0.5 °C | fold activation (SXR [2]): 12 fold

C[C@]12CCC(=O)C=C1CC[C@@H]1[C@@H]2C(=O)C[C@@]2(C)[C@H]1CC[C@]2(O)C(=O)CO [Cortisone]
ΔΔTm NcoR1-NR2 (SXR [1]): 3.6 | Probability Agonist (statistical probability of agonist state) (SXR [1]): 0.37

C[C@]12CC[C@@H]3c4ccc(O)cc4CC[C@H]3[C@@H]1CC[C@@H]2O [Estradiol]
Observed ΔTm Stabilization, SRC3-NR2 (ER-β [3]; [21]): 3.5 | Observed ΔTm Stabilization, NR2 (ER-β [3]; ER-β 8 μM, ligand 20 μM): 3.4 | Kd (SXR [1]): 8.7 µM | ΔΔTm SRC1-NR2 (SXR [1]): 3.9 | Probability Agonist (statistical probability of agonist state) (SXR [1]): 0.76 | ΔTm at 100 µM (SXR [1]): 2.3 °C

C[C@]12CCC(=O)C=C1CC[C@@H]1[C@@H]2[C@@H](O)C[C@@]2(C)[C@H]1CC[C@]2(O)C(=O)CO [Hydrocortisone]
Kd (SXR [1]): 17 µM | ΔΔTm SRC1-NR2 (SXR [1]): 3.3 | ΔTm ligand (SXR [1]): 1.6 °C | Probability Agonist (statistical probability of agonist state) (SXR [1]): 0.44 | ΔTm at 100 µM (SXR [1]): 3.7 °C

C[C@]12CC[C@@H]3c4ccc(O)cc4C[C@@H](CCCCCCCCC[S+]([O-])CCCC(F)(F)C(F)(F)F)[C@H]3[C@@H]1CC[C@@H]2O (some centres unmarked) [ICI-182780]
Observed ΔTm Stabilization, SRC3-NR2 (ER-α [4]; ER-α 8 μM, ligand 20 μM, co-activator peptide SRC3-NR2 100 μM, change from the receptor-ligand ΔTm): 0.2 | ΔTm at 100 µM (ER-α [4]; ER-α 8 μM, ligand 20 μM, co-repressor peptide NCoR-1 100 μM, change from the receptor-ligand ΔTm, read-out: Observed ΔTm Stabilization, NCoR1-NR1): -0.6 °C | Observed ΔTm Stabilization, NR2 (ER-α [4]; ER-α 8 μM, ligand 20 μM, change in Tm stabilization from the receptor-ligand ΔTm, head shifted, see doubts): 0.2 | Recruitment of co-activators (additional stabilization in the presence of co-activator protein/peptide) (ER-α [4]; result in words): no ability to recruit co-activators | ΔTm at 100 µM (ER-β [3]; ER-β 8 μM, ligand 20 μM, co-repressor peptide NCoR-1 100 μM, change from the receptor-ligand ΔTm, read-out: Observed ΔTm Stabilization, NCoR1-NR1): 0.3 °C | Observed ΔTm Stabilization, SRC-3 (ER-β [3]; ER-β 8 μM, ligand 20 μM): 16.7 | Observed ΔTm Stabilization, NR2 (ER-β [3]; ER-β 8 μM, ligand 20 μM): 0.4 | Recruitment of co-activators (additional stabilization in the presence of co-activator protein/peptide) (ER-β [3]; result in words): no ability to recruit co-activators

COc1cc2c(cc1O)CC[C@@H]1[C@@H]2CC[C@]2(C)[C@@H](O)CC[C@@H]12 [Ligand 2-methoxy-E2, 2-methoxy-E2]
Observed ΔTm Stabilization, SRC-3 (ER-α [4]; ER-α 8 μM, ligand 20 μM, average of four experiments, head shifted, see doubts): 3.5 | Observed ΔTm Stabilization, SRC3-NR2 (ER-β [3]; [21]): 4.4 | Observed ΔTm Stabilization, NCoR1-NR1 (ER-β [3]; ER-β 8 μM, ligand 20 μM, co-repressor peptide NCoR-1 100 μM, change from the receptor-ligand ΔTm): −0.7 | Observed ΔTm Stabilization, SRC-3 (ER-β [3]; ER-β 8 μM, ligand 20 μM): 2.9 | Observed ΔTm Stabilization, NR2 (ER-β [3]; ER-β 8 μM, ligand 20 μM): 4.4

C[C@H](CCC(=O)O)[C@H]1CC[C@H]2[C@@H]3CC[C@@H]4C[C@H](O)CC[C@]4(C)[C@H]3CC[C@]12C [Lithocholic acid]
ΔΔTm SRC1-NR2 (SXR [1]): 2.9 | ΔTm ligand (SXR [1]): 2.4 °C | ΔTm at 100 µM (SXR [1]): 1.4 °C

MHGSLLQEKHRILHKLLQNGNSP (peptide, UniProt Q9Y6Q9 673-695, looked up, Peptide fragment of SRC-3) [co-activator peptide SRC3-NR2]
change in Tm stabilization from the receptor-ligand ΔTm (ER-α [5]): 0.9 | change in Tm stabilization from the receptor-ligand ΔTm (ER-β [6]): 0.9 | change in Tm stabilization from the receptor-ligand ΔTm (ER-α [7]): 2.3 | change in Tm stabilization from the receptor-ligand ΔTm (ER-β [8]): 3.7 | change in Tm stabilization from the receptor-ligand ΔTm (ER-α [9]): 4.3 | change in Tm stabilization from the receptor-ligand ΔTm (ER-α [10]): 0 | change in Tm stabilization from the receptor-ligand ΔTm (ER-β [11]): 3.5 | change in Tm stabilization from the receptor-ligand ΔTm (ER-β [12]): 0.4 | change in Tm stabilization from the receptor-ligand ΔTm (ER-α [13]): 0.2 | change in Tm stabilization from the receptor-ligand ΔTm (ER-β [14]): 0.6 | change in Tm stabilization from the receptor-ligand ΔTm (ER-α [15]): 4.3 | change in Tm stabilization from the receptor-ligand ΔTm (ER-β [16]): 4.4 | change in Tm stabilization from the receptor-ligand ΔTm (ER-α [17]): 0.7 | change in Tm stabilization from the receptor-ligand ΔTm (ER-β [18]): 0.8 | change in Tm stabilization from the receptor-ligand ΔTm (ER-α [19]): 3.9 | change in Tm stabilization from the receptor-ligand ΔTm (ER-β [20]): 2.6
